Experiments:
Format in all cases: cell-based, human
DDR1 protein = DDR1 protein expression in leukocytes by immunoprecipitation and Western blotting; settings: PBMC; TNF-α 5 ng/ml or GM-CSF 10 ng/ml, 36 hours
Experimental: For Western blot analysis, cell lysates were prepared from freshly isolated PBMC, PBMC incubated overnight in RPMI 1640 containing 10% FCS, and MCF-7 cells. Cells were lysed on ice for 20 minutes in a buffer containing 50 mM Hepes, 150 mM NaCl, 1% Triton X-100, 10% glycerol, 10 mM NaF, 1 mM ethylenediamine tetraacetic acid, […], 1 mg/ml leupeptin, 1 mM phenylmethylsulfonyl fluoride, 1 mg/ml aprotinin, and 1 mg/ml pepstatin A. The lysates were spun, and the supernatants were collected. The samples were incubated with approximately 20 μl packed volume of PGS for 1 hour at 4° C. After centrifugation, supernatants were collected, mixed with 1 μg/ml normal rabbit IgG or polyclonal anti-human DDR1 IgG, and incubated for 1 hour at 4° C. PGS (20 μl) was then added and incubated for another 1 hour. IgG-coupled PGS was washed with the buffer containing 50 mM Hepes, 150 mM NaCl, 0.1% Triton X-100, 10% glycerol buffer three times, and 20 μl double-strength sample buffer (20% glycerol, 6% sodium dodecylsulfate (SDS), 10% 2-mercaptoethanol) was added. The samples were boiled for 10, minutes. Eluted proteins were analyzed on 7.5% polyacrylamide gels by SDS polyacrylamide gel electrophoresis (SDS-PAGE) and transferred electrophoretically to nitrocellulose membranes (Amersham, Arlington Heights, Ill.) at 200 mA for 2 hours by a semi-dry system. The membranes were incubated with polyclonal anti-human DDR1 or anti-phosphotyrosine IgG, followed by sheep anti-mouse IgG coupled with horseradish peroxidase (Amersham). Peroxidase activity was visualized by the Enhanced Chemiluminescence Detection System (Amersham).
There was no detectable DDR1 protein in freshly isolated PBMC. DDR1 protein was detected clearly after overnight incubation in RPMI 1640 containing 10% FCS. In order to study the kinetics of DDR1 protein expression, PBMC were incubated with or withour addition of TNF-α (5 ng/ml), or GM-CSF (10 ng/ml) for 36 hours and cell lysates were prepared. Cell lysates were subjected to immunoprecipitation with anti-DDR1 IgG or control IgG. […]

THP-1 cells = assay: Proliferation of PMA-treated THP-1 cells; settings: DDR1b-overexpressing cells on collagen-coated plates, 10 nM PMA, 24 hour and 48 hour, compared with parental, mock or DDR1a cells
Experimental: One hundred μl of cell suspension (5×10^6/ml) were plated in 96-well tissue culture plates either uncoated or collagen-coated, and incubated at 37° C. in the presence of 10 nM phorbol 12-myristate 13 acetate (PMA) for 24 or 48 hours (FIG. 4A). Data are shown as the mean ±SD of 10 wells. *p<0.01 by Bonferroni/Dun with One Way Factorial ANOVA. Twenty μl of each cell lysate were loaded and Western blotting was performed. The expression levels of DDR1 in DDR1a- or DDR1b-overexpressing THP-1 cells before and after treatment with PMA plus collagen are shown in FIG. 4C. […]
One hundred μl of cell suspension (5×10^6/ml) were plated in 96-well tissue culture plates either collagen-coated or non-coated, and incubated at 37° C. in 5% CO2 humidified atmosphere in the presence of 10 nM PMA for 48 hours. Cell proliferation was measured by using the CellTiter 96 Aqueous Non-Radioactive Cell Proliferation Assay Kit (Promega, Madison, Wis.) according to the manufacture's protocol. Trypan-blue staining was also used to measure the number of live cells in each culture.

PMN = assay: MCP-1 release by PMN (neutrophils), ELISA
Experimental: Human PMN and peripheral blood mononuclear cells (PBMC) were obtained from heparinized blood from human donors (10 units of heparin per ml of blood). One volume of 5% dextran (T-500 Pharmacia, Piscataway, N.J.) in phosphate buffered saline (PBS) was added to three volumes of blood in 50 ml polypropylene tubes. After a 40 minute incubation at room temperature, the leukocyte-rich plasma layer was removed and overlaid onto Lymphoprep in 50 ml tubes and the tubes were centrifuged at 800×g for 20 minutes at room temperature. PMN were separated from erythrocytes by lysis in 0.2% NaCl, washed in complete medium three times at 4° C. and resuspended in complete medium. PBMC contained in the PMN preparations obtained by this method were less than 0.5% by morphologic examination. Cell viability was higher than 98% by trypan blue staining.
A panel of cytokines was previously tested for their ability to induce MCP-1 production in PMN and it was reported that TNF-α and IFN-γ could cooperate to induce a high level of MCP-1 production (Yamashiro et al., J. Leukoc. Biol. 69:698, 2001). […] The majority of MCP-1 was released between 24 hours and 48 hours, showing a delayed kinetics of MCP-1 release. […] The effect of IFN-γ was dose-dependent.
To confirm that activation of DDR1 was responsible for the increased release of MCP-1 by PMN treated with IFN-γ and collagen, 513 anti-DDR1 Ab was used instead of collagen. The concentrations of MCP-1 were measured in the Lymphokine Testing Laboratory, Clinical Services Program, SAIC-Frederick (Frederick, Md.) with an ELISA kit (R&D Systems) specific for human MCP-1.

Row | Substance | level of DDR1 protein expression (DDR1 protein) | decrease of proliferation (THP-1 cells) | effect on MCP-1 production (PMN; GM-CSF-treated PMN) | effect on MCP-1 production (PMN; PMN treated with TNF-α plus IFN-γ or INF-α plus IFN-γ plus GM-CSF) | effect on MCP-1 production (PMN; PMN, no cytokine or TNF-α added)
1 | TNF-α | increased |  |  |  | 
2 | collagen |  | about 50% | no significant effect | negative effect | no significant effect

— patent US7855076B2, “Use of discoidin domain receptor 1 (DDR1) and agents that affect the DDR1/collagen pathway” (The United States of America as represented by the …, priority 2002, dated 2010)
